Source: patent publication US10350199B2, “3-(1h-pyrrolo[2,3-b]pyridin-2-yl)-1h-indazoles and therapeutic uses thereof” (Samumed, LLC, priority 2015, dated 2019)

Tests used:
Format in all cases: cell-based
[1] = tested on: Wnt activity (Sp5-Luc reporter, SW480 colon carcinoma cells); assay: Wnt activity screening assay, Sp5-Luc reporter gene in SW480 cells; settings: Homo sapiens; for inhibition at 10 µM: SW480, read-out: percent inhibition at 10 μM; for EC50: Sp5-Luc reporter, SW480 cells, overnight incubation
Text: The screening assay for Wnt activity is described as follows. Reporter cell lines can be generated by stably transducing cancer cell lines (e.g., colon cancer) or primary cells (e.g., IEC-6 intestinal cells) with a lentiviral construct that includes a Wnt-responsive promoter driving expression of the firefly luciferase gene.
SW480 colon carcinoma cells were transduced with a lentiviral vector expressing luciferase with a human Sp5 promoter consisting of a sequence of eight TCF/LEF binding sites. SW480 cells stably expressing the Sp5-Luc reporter gene and a hygromycin resistance gene were selected by treatment with 150 μg/mL of hygromycin for 7 days. These stably transduced SW480 cells were expanded in cell culture and used for all further screening activities. […] For Sp5-Luc reporter gene assays, the cells were plated at 4,000 cells/well in 384-well plates with medium containing 1% fetal bovine serum and incubated overnight at 37° C. and 5% CO2. Following incubation, 20 μl of BrightGlo luminescence reagent (Promega) was added to each well of the 384-well assay plates. The plates were placed on an orbital shaker for 2 min and then luminescence was quantified using the Envision (Perkin Elmer) plate reader. Readings were normalized to DMSO only treated cells, and normalized activities were utilized for EC50 calculations using the dose-response log (inhibitor) vs. response -variable slope (four parameters) nonlinear regression feature available in GraphPad Prism 5.0 (or Dotmatics).

[2] = tested on: SW480 colon cancer cells; assay: Cell viability assay (CellTiter-Blue), SW480 cells, four days; settings: Homo sapiens; for EC50: 96 h, SW480 cell viability, four days, CellTiter-Blue; for inhibition at 10 µM: SW480, read-out: percent inhibition at 10 μM
Method: Representative compounds were screened using the following assay procedure to assess the effect on cell viability as described below.
Approximately 2×10^3 SW480 colon cancer cells were seeded into each well and allowed to incubate in the presence or absence of compound for four days at 37° C./5% CO2. Eight replicates of DMSO-treated cells served as controls and cells treated with compound were performed in duplicate.
After incubation, 20 μL of CellTiter-Blue (Promega) was added to each well allowed to incubate for approximately 3 hours. This reagent was a buffered solution which contains resazurin, metabolically active cells were able to reduce rezarurin (blue) into resorufin (pink) which was highly fluorescent. This measured fluorescence was used as a readout for cell viability.

[3] = tested on: primary human fibroblasts derived from IPF patients (LL29 cells) treated with TGF-β1; assay: Inhibition of the fibrotic process: αSMA staining in TGF-β1 treated LL29 fibroblasts; settings: Fibroblast; for EC50: 96 h, LL29 cells, TGF-β1 20 ng/mL, 4 days, % αSMA positive cells; for inhibition at 10 µM: read-out: percent inhibition at 10 μM
Method: Representative compounds were screened using primary human fibroblasts (derived from IPF patients) treated with TGF-β1 to determine their ability to inhibit the fibrotic process.
LL29 cells are plated at 1,500 cells/well in 80 μL/well F12 medium supplemented with 1% Fetal Bovine Serum. […] Wells treated with TGF-β1 and containing DMSO were used as controls. […] Following incubation for 4 days, SYTOX green nucleic acid stain (Life Technologies [Thermo Fisher Scientific]) was added to the wells at a final concentration of 1 μM and incubated at room temperature for 30 min.

[4] = tested on: IL-6 (THP-1 human monocyte cell line); assay: IL-6 inhibition in LPS-stimulated THP-1 cells (HTRF); settings: for EC50: IL-6 inhibition, LPS-stimulated THP-1 cells, HTRF; for inhibition at 10 µM: THP-1, read-out: percentage in parentheses beside EC50 >10 (IL-6 inhibition)
Method: THP-1 cells were cultured in basal media with 1% FBS for 24 hours before the start of the assay. […] THP-1 cells were plated at 5000 cells/well in the 384-well plates and incubated at 37° C. for 2 h. 500 ng/mL of LPS was added after 2 hours and cells were incubated for another 22 hours at 37° C. Plates were spun in a centrifuge for 1 minute at […] and a mixture of anti-IL6 XL665, and anti-IL6 Cryptate diluted in reconstitution buffer (Cisbio Inc.) was added to each well. Following incubation for 3 hrs at room temperature, Homogeneous Time-Resolved Fluorescence (HTRF) was measured using the Envision (Perkin Elmer) at 665 nm and […]. The ratio of fluorescence at 665 nm to 620 nm was used as a readout for IL6 quantification. All samples were processed in duplicate. Readings were normalized to DMSO treated cells and normalized activities were utilized for EC50 calculations using the dose-response log (inhibitor) vs. response -variable slope (four parameters) nonlinear regression feature available in GraphPad Prism 5.0 (or Dotmatics).

| EC50 [1] [µM] | EC50 [2] [µM] | EC50 [4] [µM] | Compound | inhibition at 10 µM [1] [%] | inhibition at 10 µM [2] [%] | EC50 [3] [µM] | inhibition at 10 µM [3] [%] | inhibition at 10 µM [4] [%] |
| --- | --- | --- | --- | --- | --- | --- | --- | --- |
| > 10 | > 10 | 1.54 | O=C(Nc1cncc(-c2ccc3[nH]nc(-c4cc5c(-c6ccccn6)ccnc5[nH]4)c3c2)c1)C1CCCCC1 [Compound 163, N-(5-(3-(4-(Pyridin-2-yl)-1H-pyrrolo[2,3-b]pyridin-2-yl)-1H-indazol-5-yl)pyridin-3-yl)cyclohexanecarboxamide] | 38.8 | 11.1 | > 10 | 0 | – |
| > 10 | 1.15 | > 10 | Cc1ncc(-c2ccc3[nH]nc(-c4cc5c(-c6ccncc6)ccnc5[nH]4)c3c2)n1C [Compound 573, 5-(1,2-Dimethyl-1H-imidazol-5-yl)-3-(4-(pyridin-4-yl)-1H-pyrrolo[2,3-b]pyridin-2-yl)-1H-indazole] | 8 | – | > 10 | 113 | 26.4 |
| 1.22 | > 10 | > 10 | CCC(=O)Nc1cncc(-c2ccc3[nH]nc(-c4cc5c(N6CCCCC6)ccnc5[nH]4)c3c2)c1 [Compound 169, N-(5-(3-(4-(Piperidin-1-yl)-1H-pyrrolo[2,3-b]pyridin-2-yl)-1H-indazol-5-yl)pyridin-3-yl)propionamide] | – | 38.1 | > 10 | 11.6 | 33 |
| > 10 | > 10 | > 10 | Fc1cccc(-c2ccnc3[nH]c(-c4n[nH]c5ccc(-c6ccccn6)cc45)cc23)c1 [Compound 28, 3-(4-(3-Fluorophenyl)-1H-pyrrolo[2,3-b]pyridin-2-yl)-5-(pyridin-2-yl)-1H-indazole] | 8.5 | 12.9 | > 10 | 12 | 21 |
| > 10 | > 10 | 0.012 | COc1cncc(-c2ccc3[nH]nc(-c4cc5c(-c6ccco6)ccnc5[nH]4)c3c2)c1 [Compound 991, 3-(4-(Furan-2-yl)-1H-pyrrolo[2,3-b]pyridin-2-yl)-5-(5-methoxypyridin-3-yl)-1H-indazole] | 7.9 | 0 | – | – | – |
| > 10 | > 10 | > 10 | c1ccc(-c2ccc3[nH]nc(-c4cc5c(-c6ccoc6)ccnc5[nH]4)c3c2)nc1 [Compound 336, 3-(4-(Furan-3-yl)-1H-pyrrolo[2,3-b]pyridin-2-yl)-5-(pyridin-2-yl)-1H-indazole] | 11 | 0 | > 10 | 0 | 45.1 |
| 3.38 | 1.14 | 1.57 | c1ccc(-c2ccc3[nH]nc(-c4cc5c(-c6cccs6)ccnc5[nH]4)c3c2)nc1 [Compound 364, 5-(Pyridin-2-yl)-3-(4-(thiophen-2-yl)-1H-pyrrolo[2,3-b]pyridin-2-yl)-1H-indazole] | – | – | 2.2 | – | – |
| 0.181 | 0.296 | 0.663 | c1cc(N2CCCCC2)c2cc(-c3n[nH]c4ccc(-c5cn[nH]c5)cc34)[nH]c2n1 [Compound 603, 3-(4-(Piperidin-1-yl)-1H-pyrrolo[2,3-b]pyridin-2-yl)-5-(1H-pyrazol-4-yl)-1H-indazole] | – | – | 0.304 | – | – |
| 0.035 | 1.06 | > 10 | O=C(Nc1cncc(-c2ccc3[nH]nc(-c4cc5c(-c6cccc(F)c6)ccnc5[nH]4)c3c2)c1)C1CC1 [Compound 20, N-(5-(3-(4-(3-Fluorophenyl)-1H-pyrrolo[2,3-b]pyridin-2-yl)-1H-indazol-5-yl)pyridin-3-yl)cyclopropanecarboxamide] | – | – | 7.73 | – | 34.5 |
| > 10 | > 10 | > 10 | CN(C)CCOc1cncc(-c2ccc3[nH]nc(-c4cc5c(-c6ccc(F)cc6)ccnc5[nH]4)c3c2)c1 [Compound 531, 2-((5-(3-(4-(4-Fluorophenyl)-1H-pyrrolo[2,3-b]pyridin-2-yl)-1H-indazol-5-yl)pyridin-3-yl)oxy)-N,N-dimethylethan-1-amine] | 2.3 | 4.1 | > 10 | 15.6 | 0 |
| > 10 | > 10 | > 10 | CCCC(=O)Nc1cncc(-c2ccc3[nH]nc(-c4cc5c(-c6ccc(F)cc6)ccnc5[nH]4)c3c2)c1 [Compound 45, N-(5-(3-(4-(4-Fluorophenyl)-1H-pyrrolo[2,3-b]pyridin-2-yl)-1H-indazol-5-yl)pyridin-3-yl)butyramide] | 11 | 30.7 | 5.24 | – | 25.8 |
| > 10 | > 10 | > 10 | CN(C)Cc1cncc(-c2ccc3[nH]nc(-c4cc5c(N6CCCCC6)ccnc5[nH]4)c3c2)c1 [Compound 181, N,N-Dimethyl-1-(5-(3-(4-(piperidin-1-yl)-1H-pyrrolo[2,3-b]pyridin-2-yl)-1H-indazol-5-yl)pyridin-3-yl)methanamine] | 26.2 | 17.6 | > 10 | 9.1 | 29 |
| > 10 | > 10 | > 10 | CC(C)(C)C(=O)Nc1cncc(-c2ccc3[nH]nc(-c4cc5c(-c6ccc(F)cc6)ccnc5[nH]4)c3c2)c1 [Compound 36, N-(5-(3-(4-(4-Fluorophenyl)-1H-pyrrolo[2,3-b]pyridin-2-yl)-1H-indazol-5-yl)pyridin-3-yl)pivalamide] | 11.7 | 33.1 | > 10 | 0 | 19.3 |
| > 10 | > 10 | > 10 | c1csc(-c2ccnc3[nH]c(-c4n[nH]c5ccc(-c6cnccn6)cc45)cc23)c1 [Compound 712, 5-(Pyrazin-2-yl)-3-(4-(thiophen-2-yl)-1H-pyrrolo[2,3-b]pyridin-2-yl)-1H-indazole] | 5.6 | 13.9 | 1.4 | – | 36.3 |
| > 10 | > 10 | > 10 | O=C(Nc1cncc(-c2ccc3[nH]nc(-c4cc5c(-c6ccc(F)cc6)ccnc5[nH]4)c3c2)c1)c1ccccc1 [Compound 39, N-(5-(3-(4-(4-Fluorophenyl)-1H-pyrrolo[2,3-b]pyridin-2-yl)-1H-indazol-5-yl)pyridin-3-yl)benzamide] | 0 | 24.2 | 4.88 | – | 28.4 |
| 2.1 | 6.94 | 0.971 | CC(C)CC(=O)Nc1cncc(-c2ccc3[nH]nc(-c4cc5c(-c6ccsc6)ccnc5[nH]4)c3c2)c1 [Compound 282, 3-Methyl-N-(5-(3-(4-(thiophen-3-yl)-1H-pyrrolo[2,3-b]pyridin-2-yl)-1H-indazol-5-yl)pyridin-3-yl)butanamide] | – | – | – | – | – |
